# Structures can show the parent of a compound that is named as a salt. Where two headings read alike, the source gives them in different places.
# Experiments:
# [1] = tested on: K. pn GC 1510 (TEM-10); assay: MIC microbroth dilution; β-lactamase class A (ESBL); format: cell-based, K. pneumoniae
# Method: (§1) The in vitro activities of the antibiotics were determined by the microbroth dilution method as recommended by the National Committee for Clinical Laboratory Standards (NCCLS). (NCCLS. 2000. Methods for Dilution Antimicrobial Susceptibility Tests for Bacteria That Grow Aerobically; Approved Standards: M7-A5, vol. 19. National Committee for Clinical Laboratory Standards, Villanova, Pa.). Mueller-Hinton II broth (MHBII)(BBL Cockeysville, Md.), was used for the testing procedure. […]. The plates were incubated for 18-22 hours at 35° C. in ambient air.
# [2] = tested on: K. pn GC 1516 (TEM-26); assay: as above; format: cell-based, K. pneumoniae
# Method: as §1
# [3] = tested on: K. pn GC 1830 (SHV-2); assay: as above; format: cell-based, K. pneumoniae
# Method: as §1
# [4] = tested on: K. pn GC 1832 (SHV-4); assay: as above; format: cell-based, K. pneumoniae
# Method: as §1
# [5] = tested on: K. pn GC 6639 (SHV-13); assay: as above; format: cell-based, K. pneumoniae
# Method: as §1
# [6] = tested on: K. pn GC 1507 (TEM-9 + SHV-1); assay: MIC microbroth dilution; β-lactamase class A, A (ESBL); format: cell-based, K. pneumoniae
# In short: (§2)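 NCCLS microbroth dilution; MHBII; 35° C., ambient air, 18-22 hours.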
# [7] = tested on: K. pn GC 1554 (TEM-1 + TEM-26 + SHV-1); assay: as above; format: cell-based, K. pneumoniae
# In short: as §2
# [8] = tested on: K. pn GC 2006 (TEM-10 + SHV-1); assay: as above; format: cell-based, K. pneumoniae
# In short: as §2
# [9] = tested on: K. pn GC 3057 (CAZ-R; P/T-R); assay: as above; format: cell-based, K. pneumoniae
# In short: as §2
# [10] = tested on: K. pn GC 6488 (TEM-1 + SHV-5 + SHV-7); assay: as above; format: cell-based, K. pneumoniae
# In short: as §2
# [11] = tested on: K. pn GC 6651 (TEM-1 + SHV-1 + SHV-5); assay: as above; format: cell-based, K. pneumoniae
# In short: as §2
# [12] = tested on: K. pneumoniae GC 7635 SHV-1, KPC2; assay: MIC microbroth dilution; β-lactamase class A, A (Cb'ase); format: cell-based
# Method: as §1
# [13] = tested on: A. baumannii GC 7684 AmpC, AmpC; assay: MIC microbroth dilution; β-lactamase class C; format: cell-based
# Method: as §1
# [14] = tested on: E. cloacae GC 1475 (P99); assay: MIC microbroth dilution; β-lactamase class C; format: cell-based
# Method: as §1
# [15] = tested on: E. cloacae GC 1477 (AmpC); assay: MIC microbroth dilution; β-lactamase class C; format: cell-based
# Method: as §1
# [16] = tested on: E. cloacae GC 6991 (AmpC); assay: MIC microbroth dilution; β-lactamase class C; format: cell-based
# Method: as §1
# [17] = tested on: E. cloacae PT 1494 Inducible AmpC; assay: MIC microbroth dilution; β-lactamase class C; format: cell-based
# Method: as §1
# [18] = tested on: E. cloacae PT 967 Inducible AmpC; assay: MIC microbroth dilution; β-lactamase class C; format: cell-based
# Method: as §1
# [19] = tested on: E. coli GC 6539 CMY-2; assay: MIC microbroth dilution; β-lactamase class C; format: cell-based
# Method: as §1
# [20] = tested on: K. pneumoniae GC 7824 Fox 5; assay: MIC microbroth dilution; β-lactamase class C; format: cell-based
# Method: as §1
# [21] = tested on: P. aeruginosa ATCC 27853 AmpC-inducable; assay: MIC microbroth dilution; β-lactamase class C; format: cell-based
# Method: as §1
# [22] = tested on: P. aeruginosa GC 1763 AmpC-inducible; assay: MIC microbroth dilution; β-lactamase class C; format: cell-based
# Method: as §1
# [23] = tested on: P. aeruginosa GC 1764 (AmpC); assay: MIC microbroth dilution; β-lactamase class C; format: cell-based
# Method: as §1
# [24] = tested on: S. marcescens GC 4132 (AmpC); assay: MIC microbroth dilution; β-lactamase class C; format: cell-based
# Method: as §1
# [25] = tested on: K. pn GC 3104 (MIR-1 + TEM-1); assay: MIC microbroth dilution; β-lactamase class A, C; format: cell-based, K. pneumoniae
# Method: as §1
# [26] = tested on: K. pn GC 6655 (TEM-1 + ACT-1); assay: MIC microbroth dilution; β-lactamase class A, C; format: cell-based, K. pneumoniae
# Method: as §1
# [27] = tested on: E. coli GC 2149 (ACT-1; TEM-1 + pl 5.6); assay: MIC microbroth dilution; β-lactamase class A, A (ESBL), C; format: cell-based
# Method: as §1
# [28] = tested on: E. coli GC 6197 (TEM-1 + SHV-7 + CMY-2); assay: as above; format: cell-based
# Method: as §1
# [29] = tested on: K. pneumoniae GC 2825 Act 1 + 3 additional; assay: as above; format: cell-based
# Method: as §1
# [30] = tested on: K. pneumoniae GC 2826 Act 1 + 3 additional; assay: as above; format: cell-based
# Method: as §1
# [31] = tested on: S. marcescens GC 1781 (Sme-1 + AmpC); assay: MIC microbroth dilution; β-lactamase class A (Cb'ase), C; format: cell-based
# Method: as §1
# [32] = tested on: E. coli GC 1480 OXA-1; assay: MIC microbroth dilution; β-lactamase class D; format: cell-based
# Method: as §1
# [33] = tested on: E. coli GC 1807 OXA-7; assay: MIC microbroth dilution; β-lactamase class D; format: cell-based
# Method: as §1
# [34] = tested on: E. coli GAR 6649 TEM, OXA, CTX (By PCR only); assay: MIC microbroth dilution; β-lactamase class A, A (ESBL), D; format: cell-based
# Method: as §1
# [35] = Klebsiella pneumoniae, Cefepime + 4 ug/ml Compound 2, read-out: MIC
# [36] = Enterobacter cloacae, Cefepime + 4 ug/ml Compound 2, read-out: MIC
# [37] = Pseudomonas aeruginosa, Cefepime + 4 ug/ml Compound 2, read-out: MIC
# [38] = Serratia marcescens, Cefepime + 4 ug/ml Compound 2, read-out: MIC
# [39] = Escherichia coli, Cefepime + 4 ug/ml Compound 2, read-out: MIC
compound,measurement,setting,value
"O=C([O-])C1=CS[C@@H]2/C(=C\c3cn4c(n3)CCC4)C(=O)N12.[Na+] [Compound 1, (5R), (6Z)-6-(6,7-Dihydro-5H-pyrrolo[1,2-a]imidazol-2-ylmethylene)-7-oxo-4-thia-1-aza-bicyclo[3.2.0]hept-2-ene-2-carboxylic Acid, Sodium Salt]",MIC,[1]; Cefepime + 4 ug/ml Compound 1,0.06 µg/mL
same,MIC,[2]; Cefepime + 4 ug/ml Compound 1,0.25 µg/mL
same,MIC,[3]; Cefepime + 4 ug/ml Compound 1,0.03 µg/mL
same,MIC,[4]; Cefepime + 4 ug/ml Compound 1,0.06 µg/mL
same,MIC,[5]; Cefepime + 4 ug/ml Compound 1,0.25 µg/mL
same,MIC,[6]; Cefepime + 4 ug/ml Compound 1,0.12 µg/mL
same,MIC,[7]; Cefepime + 4 ug/ml Compound 1,0.25 µg/mL
same,MIC,[8]; Cefepime + 4 ug/ml Compound 1,0.12 µg/mL
same,MIC,[9]; Cefepime + 4 ug/ml Compound 1,0.12 µg/mL
same,MIC,[10]; Cefepime + 4 ug/ml Compound 1,1 µg/mL
same,MIC,[11]; Cefepime + 4 ug/ml Compound 1,0.12 µg/mL
same,MIC,[12]; Cefepime + 4 ug/ml Compound 1,8 µg/mL
same,MIC,[13]; Cefepime + 4 ug/ml Compound 1,8 µg/mL
same,MIC,[14]; Cefepime + 4 ug/ml Compound 1,0.12 µg/mL
same,MIC,[15]; Cefepime + 4 ug/ml Compound 1,0.25 µg/mL
same,MIC,[16]; Cefepime + 4 ug/ml Compound 1,0.50 µg/mL
same,MIC,[17]; Cefepime + 4 ug/ml Compound 1,0.06 µg/mL
same,MIC,[18]; Cefepime + 4 ug/ml Compound 1,0.06 µg/mL
same,MIC,[19]; Cefepime + 4 ug/ml Compound 1,0.06 µg/mL
same,MIC,[20]; Cefepime + 4 ug/ml Compound 1,0.12 µg/mL
same,MIC,[21]; Cefepime + 4 ug/ml Compound 1,2 µg/mL
same,MIC,[22]; Cefepime + 4 ug/ml Compound 1,1 µg/mL
same,MIC,[23]; Cefepime + 4 ug/ml Compound 1,1 µg/mL
same,MIC,[24]; Cefepime + 4 ug/ml Compound 1,0.12 µg/mL
same,MIC,[25]; Cefepime + 4 ug/ml Compound 1,0.50 µg/mL
same,MIC,[26]; Cefepime + 4 ug/ml Compound 1,0.12 µg/mL
same,MIC,[27]; Cefepime + 4 ug/ml Compound 1,0.50 µg/mL
same,MIC,[28]; Cefepime + 4 ug/ml Compound 1,4 µg/mL
same,MIC,[29]; Cefepime + 4 ug/ml Compound 1,0.12 µg/mL
same,MIC,[30]; Cefepime + 4 ug/ml Compound 1,1 µg/mL
same,MIC,[31]; Cefepime + 4 ug/ml Compound 1,0.12 µg/mL
same,MIC,"[32]; E. coli GC 1480, Cefepime + 4 ug/ml Compound 1",0.06 µg/mL
same,MIC,"[33]; E. coli GC 1807, Cefepime + 4 ug/ml Compound 1",<0.015 µg/mL
same,MIC,[34]; Cefepime + 4 ug/ml Compound 1,1 µg/mL
"O=C(O)C1=CS[C@@H]2/C(=C\c3cn4c(n3)COCC4)C(=O)N12 [Compound 2, (5R), (6Z)-6-(5,6-Dihydro-8H-imidazo[2.1-c][1,4]oxazin-2-ylmethylene)-7-oxo-4-thia-1-azabicyclo[3.2.0]hept-2-ene-2-carboxylic Acid, Sodium Salt]",MIC,[1]; [35],0.03 µg/mL
same,MIC,[2]; [35],0.25 µg/mL
same,MIC,[3]; [35],0.06 µg/mL
same,MIC,[4]; [35],0.06 µg/mL
same,MIC,[5]; [35],0.12 µg/mL
same,MIC,[6]; [35],0.06 µg/mL
same,MIC,[7]; [35],0.12 µg/mL
same,MIC,[8]; [35],0.25 µg/mL
same,MIC,[9]; [35],0.12 µg/mL
same,MIC,[10]; [35],0.5 µg/mL
same,MIC,[11]; [35],0.12 µg/mL
same,MIC,[12]; [35],4 µg/mL
same,MIC,"[13]; Acinetobacter baumannii, Cefepime + 4 ug/ml Compound 2, read-out: MIC",8 µg/mL
same,MIC,[14]; [36],0.12 µg/mL
same,MIC,[15]; [36],0.25 µg/mL
same,MIC,[16]; [36],0.5 µg/mL
same,MIC,[17]; [36],0.06 µg/mL
same,MIC,[18]; [36],0.12 µg/mL
same,MIC,"[19]; Escherichia coli, GC6539CMY2, Cefepime + 4 ug/ml Compound 2, read-out: MIC",0.06 µg/mL
same,MIC,"[20]; Klebsiella pneumoniae, GC7824FOX5, Cefepime + 4 ug/ml Compound 2, read-out: MIC",0.25 µg/mL
same,MIC,"[21]; Pseudomonas aeruginosa, ATCC27853, Cefepime + 4 ug/ml Compound 2, read-out: MIC",2 µg/mL
same,MIC,[22]; [37],2 µg/mL
same,MIC,[23]; [37],1 µg/mL
same,MIC,[24]; [38],0.12 µg/mL
same,MIC,[25]; [35],0.5 µg/mL
same,MIC,[26]; [35],0.12 µg/mL
same,MIC,[27]; [39],0.5 µg/mL
same,MIC,[28]; [39],2 µg/mL
same,MIC,[29]; [35],0.12 µg/mL
same,MIC,[30]; [35],1 µg/mL
same,MIC,[31]; [38],0.06 µg/mL
same,MIC,"[32]; Escherichia coli, GC1480OXA1, E. coli GC 1480, Cefepime + 4 ug/ml Compound 2, read-out: MIC",0.06 µg/mL
same,MIC,"[33]; Escherichia coli, GC1807OXA7, E. coli GC 1807, Cefepime + 4 ug/ml Compound 2, read-out: MIC",0.03 µg/mL
same,MIC,[34]; [39],1 µg/mL
